# Laboratory results as given in PubChem BioAssay (NCI).
#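 Each compound was tested at five concentrations against cells in 96-well plates for 48 hours. Here, GI50 denotes the concentration required for 50% inhibition of growth. The concentration for full growth arrest is given as TGI.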
# Key:
# Assay in all cases: inhibition of tumour cell growth, NCI panel, 48 h
# [1] = tested on: SK-MEL-5 melanoma
# [2] = tested on: TK-10 renal
# [3] = tested on: EKVX NSCLC
# [4] = tested on: HCT-15 colon
# [5] = tested on: UO-31 renal
# [6] = tested on: NCI-H226 lung
# [7] = tested on: DU-145 prostate
# [8] = tested on: OVCAR-4 ovarian
# [9] = tested on: SNB-19 CNS
# [10] = tested on: SNB-75 CNS
# [11] = tested on: SR leukemia
# [12] = tested on: IGROV1 ovarian
# [13] = tested on: NCI-H522 lung
# [14] = tested on: A498 renal
# [15] = tested on: SF-295 CNS
# [16] = tested on: SW-620 colon
# [17] = tested on: PC-3 prostate
# [18] = tested on: CCRF-CEM leukemia
# [19] = tested on: HL-60(TB) leukemia
# [20] = tested on: SN12C renal
# [21] = tested on: SK-MEL-28 melanoma
# [22] = tested on: K-562 leukemia
# [23] = tested on: MOLT-4 leukemia
# [24] = tested on: SF-539 CNS
# [25] = tested on: OVCAR-5 ovarian
# [26] = tested on: HT29 colon
# [27] = tested on: HOP-62 NSCLC
# [28] = tested on: NCI-H460 lung
# [29] = tested on: SK-MEL-2 melanoma
# [30] = tested on: MDA-MB-231 breast
# [31] = tested on: NCI/ADR-RES ovarian
# [32] = tested on: HCC-2998 colon
# [33] = tested on: HCT-116 colon
# [34] = tested on: MCF7 breast
# [35] = tested on: UACC-257 melanoma
# [36] = tested on: CAKI-1 renal
# [37] = tested on: RPMI-8226 leukemia
# [38] = tested on: COLO 205 colon
# [39] = tested on: HOP-92 NSCLC
# [40] = tested on: UACC-62 melanoma
# [41] = tested on: KM12 colon
# [42] = tested on: SF-268 CNS
# [43] = tested on: OVCAR-8 ovarian
# [44] = tested on: A549 NSCLC
# [45] = tested on: SK-OV-3 ovarian
# [46] = tested on: OVCAR-3 ovarian
# [47] = tested on: M14 melanoma
# [48] = tested on: U251 CNS
# [49] = tested on: LOX IMVI melanoma
# [50] = tested on: BT-549 breast
# [51] = tested on: HS 578T breast
# [52] = tested on: ACHN renal
# [53] = tested on: T-47D breast
# [54] = tested on: MALME-3M melanoma
# [55] = tested on: NCI-H23 lung
# [56] = tested on: 786-0 renal
# [57] = tested on: RXF 393 renal
# [58] = tested on: MDA-MB-435
compound,measurement,setting,value
CCc1cccc2c3c(sc12)C(c1ccc(F)cc1)C(C#N)=C(/N=C/c1ccc(Cl)cc1)O3 (stereo not drawn),GI50,[1],0.319 µM
same,TGI,[1],18 µM
same,GI50,[2],6.8 µM
same,TGI,[2],> 100 µM
same,GI50,[3],0.488 µM
same,TGI,[3],> 100 µM
same,GI50,[4],0.355 µM
same,TGI,[4],> 100 µM
same,GI50,[5],0.553 µM
same,TGI,[5],> 100 µM
same,GI50,[6],0.379 µM
same,TGI,[6],45.9 µM
same,GI50,[7],0.579 µM
same,TGI,[7],> 100 µM
same,GI50,[8],97.6 µM
same,TGI,[8],> 100 µM
same,GI50,[9],0.988 µM
same,TGI,[9],> 100 µM
same,GI50,[10],0.376 µM
same,TGI,[10],79.8 µM
same,GI50,[11],0.402 µM
same,TGI,[11],19.8 µM
same,GI50,[12],0.498 µM
same,TGI,[12],> 100 µM
same,GI50,[13],0.066 µM
same,TGI,[13],0.381 µM
same,GI50,[14],> 100 µM
same,TGI,[14],> 100 µM
same,GI50,[15],0.278 µM
same,TGI,[15],> 100 µM
same,GI50,[16],0.471 µM
same,TGI,[16],> 100 µM
same,GI50,[17],0.501 µM
same,TGI,[17],> 100 µM
same,GI50,[18],0.324 µM
same,TGI,[18],44.2 µM
same,GI50,[19],0.222 µM
same,TGI,[19],0.649 µM
same,GI50,[20],0.43 µM
same,TGI,[20],> 100 µM
same,GI50,[21],0.492 µM
same,TGI,[21],> 100 µM
same,GI50,[22],0.128 µM
same,TGI,[22],> 100 µM
same,GI50,[23],0.519 µM
same,TGI,[23],> 100 µM
same,GI50,[24],0.208 µM
same,TGI,[24],0.648 µM
same,GI50,[25],0.421 µM
same,TGI,[25],> 100 µM
same,GI50,[26],0.323 µM
same,TGI,[26],36.5 µM
same,GI50,[27],0.312 µM
same,TGI,[27],> 100 µM
same,GI50,[28],0.427 µM
same,TGI,[28],> 100 µM
same,GI50,[29],0.325 µM
same,TGI,[29],78 µM
same,GI50,[30],0.364 µM
same,TGI,[30],> 100 µM
same,GI50,[31],0.192 µM
same,TGI,[31],0.683 µM
same,GI50,[32],1.14 µM
same,TGI,[32],> 100 µM
same,GI50,[33],0.383 µM
same,TGI,[33],> 100 µM
same,GI50,[34],0.392 µM
same,TGI,[34],> 100 µM
same,GI50,[35],43.4 µM
same,TGI,[35],> 100 µM
same,GI50,[36],0.149 µM
same,TGI,[36],> 100 µM
same,GI50,[37],0.387 µM
same,TGI,[37],> 100 µM
same,GI50,[38],0.373 µM
same,TGI,[38],2.95 µM
same,GI50,[39],22.4 µM
same,TGI,[39],> 100 µM
same,GI50,[40],0.352 µM
same,TGI,[40],> 100 µM
same,GI50,[41],0.701 µM
same,TGI,[41],> 100 µM
same,GI50,[42],6.26 µM
same,TGI,[42],> 100 µM
same,GI50,[43],0.5 µM
same,TGI,[43],> 100 µM
same,GI50,[44],0.506 µM
same,TGI,[44],> 100 µM
same,GI50,[45],0.412 µM
same,TGI,[45],> 100 µM
same,GI50,[46],0.709 µM
same,TGI,[46],> 100 µM
same,GI50,[47],0.335 µM
same,TGI,[47],> 100 µM
same,GI50,[48],0.369 µM
same,TGI,[48],34.2 µM
same,GI50,[49],0.576 µM
same,TGI,[49],> 100 µM
same,GI50,[50],2.05 µM
same,TGI,[50],7.84 µM
same,GI50,[51],0.255 µM
same,TGI,[51],80.2 µM
same,GI50,[52],0.824 µM
same,TGI,[52],> 100 µM
same,GI50,[53],0.45 µM
same,TGI,[53],> 100 µM
same,GI50,[54],0.384 µM
same,TGI,[54],> 100 µM
same,GI50,[55],0.578 µM
same,TGI,[55],> 100 µM
same,GI50,[56],0.661 µM
same,TGI,[56],> 100 µM
c1ccc(-c2n(Cc3ccc4ccccc4c3)c3c4ccccc4c4ccccc4c3[n+]2Cc2ccc3ccccc3c2)cc1,GI50,[57],0.28 µM
same,TGI,[57],1.03 µM
same,GI50,[1],0.203 µM
same,TGI,[1],0.437 µM
same,GI50,[2],0.468 µM
same,TGI,[2],2 µM
same,GI50,[3],0.552 µM
same,TGI,[3],2.03 µM
same,GI50,[4],0.966 µM
same,TGI,[4],2.63 µM
same,GI50,[5],1.55 µM
same,TGI,[5],3.22 µM
same,GI50,[6],0.408 µM
same,TGI,[6],1.85 µM
same,GI50,[7],0.406 µM
same,TGI,[7],1.52 µM
same,GI50,[8],0.298 µM
same,TGI,[8],1.27 µM
same,GI50,[9],0.364 µM
same,TGI,[9],1.45 µM
same,GI50,[10],0.303 µM
same,TGI,[10],1.4 µM
same,GI50,[11],0.245 µM
same,TGI,[11],0.825 µM
same,GI50,[12],0.192 µM
same,TGI,[12],1.34 µM
same,GI50,[13],0.34 µM
same,TGI,[13],1.63 µM
same,GI50,[58],0.34 µM
same,TGI,[58],1.25 µM
same,GI50,[14],0.337 µM
same,TGI,[14],1.23 µM
same,GI50,[15],0.282 µM
same,TGI,[15],1.11 µM
same,GI50,[16],0.329 µM
same,TGI,[16],1.37 µM
same,GI50,[17],0.313 µM
same,TGI,[17],1.22 µM
same,GI50,[18],0.357 µM
same,TGI,[18],1.75 µM
same,GI50,[19],0.157 µM
same,TGI,[19],0.38 µM
same,GI50,[20],0.323 µM
same,TGI,[20],1.21 µM
same,GI50,[21],0.569 µM
same,TGI,[21],1.87 µM
same,GI50,[22],0.271 µM
same,TGI,[22],1.18 µM
same,GI50,[23],0.377 µM
same,TGI,[23],1.39 µM
same,GI50,[24],0.375 µM
same,TGI,[24],1.4 µM
same,GI50,[25],0.423 µM
same,TGI,[25],1.7 µM
same,GI50,[26],0.179 µM
same,TGI,[26],1.38 µM
same,GI50,[27],0.358 µM
same,TGI,[27],1.59 µM
same,GI50,[29],0.294 µM
same,TGI,[29],0.853 µM
same,GI50,[30],0.313 µM
same,TGI,[30],1.06 µM
same,GI50,[31],1.63 µM
same,TGI,[31],3.66 µM
same,GI50,[32],0.407 µM
same,TGI,[32],1.58 µM
same,GI50,[33],0.183 µM
same,TGI,[33],1.14 µM
same,GI50,[34],0.304 µM
same,TGI,[34],1.36 µM
same,GI50,[35],0.328 µM
same,TGI,[35],1.24 µM
same,GI50,[36],0.389 µM
same,TGI,[36],1.52 µM
same,GI50,[37],0.261 µM
same,TGI,[37],1.04 µM
same,GI50,[38],0.267 µM
same,TGI,[38],0.795 µM
same,GI50,[39],0.211 µM
same,TGI,[39],0.74 µM
same,GI50,[40],0.343 µM
same,TGI,[40],1.4 µM
same,GI50,[41],0.395 µM
same,TGI,[41],1.51 µM
same,GI50,[42],0.441 µM
same,TGI,[42],1.84 µM
same,GI50,[45],0.317 µM
same,TGI,[45],1.12 µM
same,GI50,[46],0.351 µM
same,TGI,[46],1.23 µM
same,GI50,[48],0.312 µM
same,TGI,[48],1.56 µM
same,GI50,[49],0.177 µM
same,TGI,[49],0.355 µM
same,GI50,[50],0.316 µM
same,TGI,[50],1.29 µM
same,GI50,[51],0.434 µM
same,TGI,[51],2.05 µM
same,GI50,[52],0.708 µM
same,TGI,[52],1.93 µM
same,GI50,[53],0.367 µM
same,TGI,[53],1.84 µM
same,GI50,[55],0.228 µM
same,TGI,[55],0.79 µM
same,GI50,[56],0.337 µM
same,TGI,[56],1.34 µM
